Experimental data taken from US9943519B2, “Pharmaceutical compounds” (F.HOFFMANN-LA ROCHE AG, priority 2006, dated 2018).

Tests used:
Type in all cases: biochemical
Settings in all cases: ratio of IC50 values, SPA, purified human PI3K isoforms
[1] = biological target: human PI3K isoform beta (p110 beta) (Homo sapiens, UniProt P42338); experiment: p110 isoform selectivity scintillation proximity assay (beta)
Description: (§1) Binding of compounds of the invention from above Tables 1a and 1b to purified preparations of p110 isoforms alpha, beta, delta, and gamma was measured by a Scintillation Proximity Assay (SPA) to determine binding activity (IC50 μMol) and selectivity of binding of beta, delta, and gamma isoforms relative to alpha (Example 8). These values are expressed in Table 2.
(§2) The ability of representative compounds from Tables 1a and 1b to inhibit the lipid kinase activity of purified preparations of human PI3K isoforms alpha, beta, delta, and gamma was determined by a radiometric scintillation proximity assay (SPA, GE Healthcare, Amersham Biosciences). Concentration dependent inhibition at 50% (IC50 μMol) was determined for all four isoforms […] and fold potency over beta, delta, and gamma relative to alpha was calculated for a selection of compounds in Table 2. Each compound has a p110 alpha IC50<1 μMol.

[2] = biological target: human PI3K isoform delta (p110 delta) (Homo sapiens, UniProt O00329); experiment: p110 isoform selectivity scintillation proximity assay (delta)
human PI3K isoform delta (p110 delta), sequence (O00329 whole entry, canonical isoform): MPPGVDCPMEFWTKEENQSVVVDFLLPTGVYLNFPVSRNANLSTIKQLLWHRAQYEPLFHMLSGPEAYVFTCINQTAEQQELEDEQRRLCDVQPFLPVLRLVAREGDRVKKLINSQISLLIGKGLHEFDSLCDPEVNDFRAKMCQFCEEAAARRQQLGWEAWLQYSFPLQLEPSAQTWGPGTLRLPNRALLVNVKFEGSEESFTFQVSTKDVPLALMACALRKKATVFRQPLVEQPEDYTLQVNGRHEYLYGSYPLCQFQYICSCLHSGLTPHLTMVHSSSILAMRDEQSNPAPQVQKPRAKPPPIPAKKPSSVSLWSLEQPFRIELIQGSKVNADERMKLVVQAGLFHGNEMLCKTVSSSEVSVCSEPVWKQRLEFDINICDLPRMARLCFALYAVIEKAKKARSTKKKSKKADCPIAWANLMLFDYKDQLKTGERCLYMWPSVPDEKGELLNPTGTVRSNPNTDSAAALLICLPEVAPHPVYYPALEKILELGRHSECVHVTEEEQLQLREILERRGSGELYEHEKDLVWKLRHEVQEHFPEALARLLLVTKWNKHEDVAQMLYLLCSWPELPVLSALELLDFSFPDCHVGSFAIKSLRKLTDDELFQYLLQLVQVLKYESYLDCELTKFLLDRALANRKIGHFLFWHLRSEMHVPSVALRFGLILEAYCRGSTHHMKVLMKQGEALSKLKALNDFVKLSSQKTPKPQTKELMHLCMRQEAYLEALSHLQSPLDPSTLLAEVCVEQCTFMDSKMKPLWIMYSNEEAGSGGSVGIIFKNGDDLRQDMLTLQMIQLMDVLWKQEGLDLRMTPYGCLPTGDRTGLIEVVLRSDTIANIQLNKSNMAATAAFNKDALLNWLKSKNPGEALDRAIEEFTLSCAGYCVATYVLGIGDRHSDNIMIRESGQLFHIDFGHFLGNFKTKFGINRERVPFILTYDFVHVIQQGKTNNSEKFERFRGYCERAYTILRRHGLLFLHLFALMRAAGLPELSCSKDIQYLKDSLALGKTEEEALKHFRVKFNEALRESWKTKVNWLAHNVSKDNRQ
human PI3K isoform delta (p110 delta), sequence (P27986 whole entry partner, canonical isoform): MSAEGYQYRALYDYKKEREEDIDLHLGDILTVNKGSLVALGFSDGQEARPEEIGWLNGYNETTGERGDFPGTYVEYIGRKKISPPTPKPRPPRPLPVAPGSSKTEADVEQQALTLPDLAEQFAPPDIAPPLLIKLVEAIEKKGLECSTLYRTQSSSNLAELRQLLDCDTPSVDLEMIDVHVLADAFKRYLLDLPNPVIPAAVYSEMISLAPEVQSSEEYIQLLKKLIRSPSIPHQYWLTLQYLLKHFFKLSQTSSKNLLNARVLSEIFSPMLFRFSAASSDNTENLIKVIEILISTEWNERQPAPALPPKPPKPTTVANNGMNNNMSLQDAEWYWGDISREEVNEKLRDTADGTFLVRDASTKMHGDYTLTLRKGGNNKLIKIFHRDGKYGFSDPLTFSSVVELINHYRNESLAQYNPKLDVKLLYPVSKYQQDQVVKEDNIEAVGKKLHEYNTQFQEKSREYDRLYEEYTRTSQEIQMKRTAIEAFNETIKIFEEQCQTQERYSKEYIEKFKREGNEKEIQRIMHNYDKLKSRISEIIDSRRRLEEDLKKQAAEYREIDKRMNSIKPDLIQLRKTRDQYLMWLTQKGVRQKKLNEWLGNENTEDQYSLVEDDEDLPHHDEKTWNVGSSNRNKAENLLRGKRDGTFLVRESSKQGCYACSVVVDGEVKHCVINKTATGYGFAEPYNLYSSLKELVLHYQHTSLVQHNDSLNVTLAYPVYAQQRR
Description: as §1, §2

[3] = biological target: human PI3K isoform gamma (p110 gamma) (Homo sapiens, UniProt P48736); experiment: p110 isoform selectivity scintillation proximity assay (gamma)
human PI3K isoform gamma (p110 gamma), sequence (P48736 whole entry, canonical isoform): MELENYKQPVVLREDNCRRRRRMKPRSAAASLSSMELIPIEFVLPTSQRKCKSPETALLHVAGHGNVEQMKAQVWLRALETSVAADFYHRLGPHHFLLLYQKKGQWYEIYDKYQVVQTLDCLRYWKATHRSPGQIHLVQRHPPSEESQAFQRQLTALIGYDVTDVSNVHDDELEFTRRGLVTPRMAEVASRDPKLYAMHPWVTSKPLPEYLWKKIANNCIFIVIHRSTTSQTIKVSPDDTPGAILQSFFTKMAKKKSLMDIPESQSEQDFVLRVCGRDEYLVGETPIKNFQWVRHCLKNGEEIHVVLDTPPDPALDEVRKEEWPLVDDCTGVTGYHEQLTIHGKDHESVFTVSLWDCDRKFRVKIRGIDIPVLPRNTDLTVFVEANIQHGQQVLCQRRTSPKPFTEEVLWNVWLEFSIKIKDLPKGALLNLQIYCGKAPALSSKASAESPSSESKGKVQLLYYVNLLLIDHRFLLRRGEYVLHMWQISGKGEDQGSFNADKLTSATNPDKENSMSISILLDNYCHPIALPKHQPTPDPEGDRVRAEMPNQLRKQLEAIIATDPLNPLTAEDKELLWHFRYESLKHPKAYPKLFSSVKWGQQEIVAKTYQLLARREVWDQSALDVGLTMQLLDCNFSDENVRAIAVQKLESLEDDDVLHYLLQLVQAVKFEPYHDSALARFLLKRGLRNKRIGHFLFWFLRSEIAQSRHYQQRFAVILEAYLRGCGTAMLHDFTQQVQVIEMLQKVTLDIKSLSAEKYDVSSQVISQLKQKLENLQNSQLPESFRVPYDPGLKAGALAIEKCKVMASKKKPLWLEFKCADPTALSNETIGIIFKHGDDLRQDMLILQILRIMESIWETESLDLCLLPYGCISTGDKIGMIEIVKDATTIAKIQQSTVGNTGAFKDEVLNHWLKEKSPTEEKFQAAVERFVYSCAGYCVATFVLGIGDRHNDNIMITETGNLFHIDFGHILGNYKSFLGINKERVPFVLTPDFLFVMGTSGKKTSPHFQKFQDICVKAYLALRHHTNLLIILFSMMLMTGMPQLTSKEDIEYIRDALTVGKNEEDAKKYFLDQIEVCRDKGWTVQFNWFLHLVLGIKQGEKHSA
Description: as §1, §2

human PI3K isoform beta (p110 beta), sequence (P42338 whole entry, canonical isoform): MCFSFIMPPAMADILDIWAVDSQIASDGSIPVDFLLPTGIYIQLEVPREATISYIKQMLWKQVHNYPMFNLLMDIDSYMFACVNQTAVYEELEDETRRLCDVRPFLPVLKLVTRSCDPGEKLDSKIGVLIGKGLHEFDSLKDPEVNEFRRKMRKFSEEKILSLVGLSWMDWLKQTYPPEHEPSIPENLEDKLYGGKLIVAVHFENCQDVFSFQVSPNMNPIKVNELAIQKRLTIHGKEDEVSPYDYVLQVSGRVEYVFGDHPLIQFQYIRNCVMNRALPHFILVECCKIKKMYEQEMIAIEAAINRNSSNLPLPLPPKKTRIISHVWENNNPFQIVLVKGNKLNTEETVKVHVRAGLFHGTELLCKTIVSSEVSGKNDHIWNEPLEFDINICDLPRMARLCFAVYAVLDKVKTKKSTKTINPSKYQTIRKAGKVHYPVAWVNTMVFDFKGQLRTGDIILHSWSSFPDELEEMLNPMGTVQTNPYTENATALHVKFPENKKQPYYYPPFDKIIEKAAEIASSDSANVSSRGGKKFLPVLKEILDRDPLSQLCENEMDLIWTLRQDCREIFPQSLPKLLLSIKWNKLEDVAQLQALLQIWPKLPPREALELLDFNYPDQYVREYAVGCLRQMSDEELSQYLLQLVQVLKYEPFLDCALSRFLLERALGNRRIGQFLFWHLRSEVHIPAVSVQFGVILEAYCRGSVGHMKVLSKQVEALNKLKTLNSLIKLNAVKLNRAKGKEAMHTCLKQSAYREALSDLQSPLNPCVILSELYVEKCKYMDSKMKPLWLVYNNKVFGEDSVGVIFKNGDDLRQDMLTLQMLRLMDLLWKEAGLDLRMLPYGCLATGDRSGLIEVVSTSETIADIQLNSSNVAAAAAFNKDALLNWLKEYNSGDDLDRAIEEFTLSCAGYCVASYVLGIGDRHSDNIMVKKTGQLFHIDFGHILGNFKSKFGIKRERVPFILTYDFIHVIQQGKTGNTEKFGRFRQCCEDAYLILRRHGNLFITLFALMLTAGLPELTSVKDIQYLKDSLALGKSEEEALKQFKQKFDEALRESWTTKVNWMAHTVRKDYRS
human PI3K isoform beta (p110 beta), sequence (P27986 whole entry partner, canonical isoform): as the sequence (P27986 whole entry partner, canonical isoform) above

Row | SMILES | alpha/beta (fold potency over beta relative to alpha) [1] [fold] | alpha/delta (fold potency over delta relative to alpha) [2] [fold] | alpha/gamma (fold potency over gamma relative to alpha) [3] [fold]
1 | Cc1nc2ccccc2n1-c1nc(N2CCOCC2)c2cc(CN3CCN(S(C)(=O)=O)CC3)sc2n1 [Compound 16, 2-(2-methyl-1H-benzo[d]imidazol-1-yl)-6-((4-methylsulfonylpiperazin-1-yl)methyl)-4-morpholinothieno[2,3-d]pyrimidine] | >10 | <10 | >10
2 | Cc1c(CN2CCC(S(C)(=O)=O)CC2)sc2c(N3CCOCC3)nc(-c3cccc4[nH]ncc34)nc12 [Compound 23, 2-(1H-indazol-4-yl)-7-methyl-6-((4-(methylsulfonyl)piperidin-1-yl)methyl)-4-morpholinothieno[3,2-d]pyrimidine] | >10 | <10 | >10
3 | O=S(=O)(N1CCOCC1)N1CCN(Cc2cc3nc(-c4cccc5[nH]ncc45)nc(N4CCOCC4)c3s2)CC1 [Compound 28, 2-(1H-indazol-4-yl)-6-((4-N-morpholinosulfonylpiperazin-1-yl)methyl)-4-morpholinothieno[3,2-d]pyrimidine] | >10 | <10 | >10
4 | Cc1c(CN2CCN(S(C)(=O)=O)CC2)sc2c(N3CCOCC3)nc(-c3cccc4[nH]ncc34)nc12 [Compound 29, 2-(1H-indazol-4-yl)-7-methyl-6-((4-(methylsulfonyl)piperazin-1-yl)methyl)-4-morpholinothieno[3,2-d]pyrimidine] | >10 | <10 | >10
5 | CS(=O)(=O)N1CCN(Cc2cc3c(N4CCOCC4)nc(-c4cccc5[nH]ncc45)nc3s2)CC1 [Compound 57, 2-(1H-indazol-4-yl)-6-((4-methylsulfonylpiperazin-1-yl)methyl)-4-morpholinothieno[2,3-d]pyrimidine] | >10 | <10 | >10
6 | c1cc(-c2nc(N3CCOCC3)c3sc(CN4CCC(Cn5cccn5)CC4)cc3n2)c2cn[nH]c2c1 [Compound 62, 6-((4-((1H-pyrazol-1-yl)methyl)piperidin-1-yl)methyl)-2-(1H-indazol-4-yl)-4-morpholinothieno[3,2-d]pyrimidine] | >10 | <10 | >10
7 | C[C@H](O)C(=O)N1CCN(Cc2cc3nc(-c4cccc5[nH]ncc45)nc(N4CCOCC4)c3s2)CC1 [Compound 66, (S)-1-(4-((2-(1H-indazol-4-yl)-4-morpholinothieno[3,2-d]pyrimidin-6-yl)methyl)piperazin-1-yl)-2-hydroxypropan-1-one] | <10 | <10 | >10
8 | CS(=O)(=O)N1CCN(Cc2cc3nc(-c4cnc5ccccc5c4)nc(N4CCOCC4)c3s2)CC1 [Compound 89, 3-[6-(4-Methanesulfonyl-piperazin-1-ylmethyl)-4-morpholin-yl-thieno[3,2-d]pyrimidin-2-yl]-quinoline] | >10 | >10 | >10
9 | CS(=O)(=O)N1CCN(Cc2cc3nc(-c4cncc5ccccc45)nc(N4CCOCC4)c3s2)CC1 [Compound 90, 4-[6-(4-Methanesulfonyl-piperazin-1-ylmethyl)-4-morpholin-4-yl-thieno[3,2-d]pyrimidin-2-yl]-isoquinoline] | >10 | <10 | >10
10 | CS(=O)(=O)N1CCN(Cc2cc3c(N4CCOCC4)nc(-c4cncc5ccccc45)nc3s2)CC1 [Compound 94, 4-[6-(4-Methanesulfonyl-piperazin-1-ylmethyl)-4-morpholin-4-yl-thieno[2,3-d]pyrimidin-2-yl]-isoquinoline] | >10 | <10 | >10

Second part, the compound after the results:

Row | alpha/beta (fold potency over beta relative to alpha) [1] [fold] | alpha/delta (fold potency over delta relative to alpha) [2] [fold] | alpha/gamma (fold potency over gamma relative to alpha) [3] [fold] | SMILES
11 | >10 | <10 | >10 | CS(=O)(=O)N1CCN(Cc2cc3nc(-c4cccc5[nH]ncc45)nc(N4CCOCC4)c3o2)CC1 [Compound 2, 2-(1H-indazol-4-yl)-6-((4-methylsulfonylpiperazin-1-yl)methyl)-4-morpholinofuro[3,2-d]pyrimidine]
12 | >10 | <10 | >10 | C[C@H]1CN(Cc2cc3nc(-c4cccc5[nH]ncc45)nc(N4CCOCC4)c3s2)CCN1S(C)(=O)=O [Compound 4, 2-(1H-indazol-4-yl)-6-(((3S,5R)-3-methyl-4-methylsulfonylpiperazin-1-yl)methyl)-4-morpholinothieno[3,2-d]pyrimidine]
13 | >10 | <10 | >10 | C[C@@H]1CN(S(C)(=O)=O)C[C@H](C)N1Cc1cc2nc(-c3cccc4[nH]ncc34)nc(N3CCOCC3)c2s1 [Compound 7, 6-(((2R,6S)-4-methylsulfonyl-2,6-dimethylpiperazin-1-yl)methyl)-2-(1H-indazol-4-yl)-4-morpholinothieno[3,2-d]pyrimidine]
14 | >10 | <10 | >10 | CN1CCN(S(=O)(=O)C2CCN(Cc3cc4nc(-c5cccc6[nH]ncc56)nc(N5CCOCC5)c4s3)CC2)CC1 [Compound 24, 2-(1H-indazol-4-yl)-6-((4-N-4-methylpiperazinosulfonylpiperidin-1-yl)methyl)-4-morpholinothieno[3,2-d]pyrimidine]
15 | >10 | <10 | >10 | CN(C)S(=O)(=O)C1CCN(Cc2cc3nc(-c4cccc5[nH]ncc45)nc(N4CCOCC4)c3s2)CC1 [Compound 27, 2-(1H-indazol-4-yl)-6-((4-N,N-dimethylaminosulfonylpiperidin-1-yl)methyl)-4-morpholinothieno[3,2-d]pyrimidine]
16 | >10 | <10 | >10 | COCCN(Cc1cc2nc(-c3cccc4[nH]ncc34)nc(N3CCOCC3)c2s1)C1CCN(S(C)(=O)=O)CC1 [Compound 34, N-((2-(1H-indazol-4-yl)-4-morpholinothieno[3,2-d]pyrimidin-6-yl)methyl)-N-(2-methoxyethyl)-1-methylsulfonylpiperidin-4-amine]
17 | <10 | <10 | >10 | CC(=O)N1CCN(Cc2cc3nc(-c4cccc5[nH]ncc45)nc(N4CCOCC4)c3s2)CC1 [Compound 54, 1-(4-((2-(1H-indazol-4-yl)-4-morpholinothieno[3,2-d]pyrimidin-6-yl)methyl)piperazin-1-yl)ethanone]
18 | >10 | <10 | >10 | CN(C1CCN(Cc2cc3nc(-c4cccc5[nH]ncc45)nc(N4CCOCC4)c3s2)C1)S(C)(=O)=O (stereo not drawn) [Compound 58, 1-((2-(1H-indazol-4-yl)-4-morpholinothieno[3,2-d]pyrimidin-6-yl)methyl)-N-methyl-N-methylsulfonylpyrrolidin-3-amine]
19 | >10 | <10 | >10 | CN(Cc1cc2nc(-c3cccc4[nH]ncc34)nc(N3CCOCC3)c2s1)CC1CCCN1S(C)(=O)=O (stereo not drawn) [Compound 59, N-((2-(1H-indazol-4-yl)-4-morpholinothieno[3,2-d]pyrimidin-6-yl)methyl)-N-methyl(1-methylsulfonylpyrrolidin-2-yl)methanamine]
20 | >10 | <10 | >10 | CN(Cc1cc2nc(-c3cccc4[nH]ncc34)nc(N3CCOCC3)c2s1)C1CCN(S(C)(=O)=O)C1 (stereo not drawn) [Compound 60, N-((2-(1H-indazol-4-yl)-4-morpholinothieno[3,2-d]pyrimidin-6-yl)methyl)-N-methyl-(1-methylsulfonylpyrrolidin)-3-amine]
21 | <10 | <10 | >10 | OC1CCCN(Cc2cc3nc(-c4cccc5[nH]ncc45)nc(N4CCOCC4)c3s2)C1 (stereo not drawn) [Compound 65, 1-((2-(1H-indazol-4-yl)-4-morpholinothieno[3,2-d]pyrimidin-6-yl)methyl)piperidin-3-ol]
